In patent US20240067693A1, “POLYPEPTIDES AND USES THEREOF” (MEDIMMUNE LIMITED, priority 2020, published 2024):
Numbered stars: 1 amine (or outer) side, 2 acyl side, 3 side chain; on linkers, the order of the positions; unused ones are H or OH. Bridge positions count the residues as written; N and C are the ends. Square brackets hold non-standard residues; d marks the D form. Side chains are listed from the residue outwards. Peptide text beside a SMILES is read from it. * marks the point of attachment. C18 diacid = O=C(O)CCCCCCCCCCCCCCCCC(=O)*; γGlu = O=C(O)[C@H](CCC(=O)[*:2])N[*:1]; αMeF = C[C@](N)(Cc1ccccc1)C(=O)O; Dab = NCC[C@H](N)C(=O)O

Tests used:
[1] = biological target: T1, human amylin receptor (calcitonin receptor co-expressed with receptor activity modifying protein, RAMP3) (hAMYR3) (Homo sapiens, UniProt O60896+P30988); test: cAMP production in 1321N1 cells with stable recombinant expression of human amylin receptor (hAMYR3); format: cell-based; details: for Ratio (selectivity hAMYR vs hCTR, ratio of EC50 values at the two receptors): EC50 hCTR / EC50 hAMYR3; for EC50: cAMP, 1321N1 cells, assay buffer with 0.1% BSA, read-out: EC50 (pM) hAMYR3
T1 construct: expressed in transfected cells
T1 sequence (P30988 25-474): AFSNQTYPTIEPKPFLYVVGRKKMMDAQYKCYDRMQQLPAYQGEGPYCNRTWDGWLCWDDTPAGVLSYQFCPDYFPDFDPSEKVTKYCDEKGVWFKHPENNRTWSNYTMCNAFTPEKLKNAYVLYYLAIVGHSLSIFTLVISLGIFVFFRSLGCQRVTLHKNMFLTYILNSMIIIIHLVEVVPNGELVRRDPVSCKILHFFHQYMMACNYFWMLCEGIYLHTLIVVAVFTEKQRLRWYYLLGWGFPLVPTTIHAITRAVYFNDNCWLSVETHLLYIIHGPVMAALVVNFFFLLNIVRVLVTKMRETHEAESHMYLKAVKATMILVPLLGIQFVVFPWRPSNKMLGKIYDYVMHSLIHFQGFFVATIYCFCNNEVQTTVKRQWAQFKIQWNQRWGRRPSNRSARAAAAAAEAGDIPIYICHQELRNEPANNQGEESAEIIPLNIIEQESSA
T1 sequence (O60896 24-148 partner): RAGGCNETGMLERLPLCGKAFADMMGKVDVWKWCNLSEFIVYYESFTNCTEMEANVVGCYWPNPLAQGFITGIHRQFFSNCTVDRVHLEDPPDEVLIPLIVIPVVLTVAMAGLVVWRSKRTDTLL
How it was run: (§1)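 EC50 values come from 4-parameter logistic fits of HTRF cAMP signal, normalised to maximal calcitonin or amylin effect. Peptides were tested in duplicate for 30 min at RT in IBMX-containing (0.5 mM) BSA/HEPES buffer pH 7.4 on stable 1321N1 (human CTR, AMYR3) or HEK (rat CTR, AMYR3) lines.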

[2] = biological target: T2, human calcitonin receptor (hCTR) (Homo sapiens, UniProt P30988); test: cAMP production in 1321N1 cells with stable recombinant expression of human calcitonin receptor (hCTR); format: cell-based; details: cAMP, 1321N1 cells, assay buffer with 0.1% BSA; read-out: EC50 (pM) hCTR
T2 construct: expressed in transfected cells
T2 sequence (P30988 25-474): T1 sequence (P30988 25-474)
How it was run: as §1

[3] = Thioflavin T fibrillation assay; format: physicochemical; details: ThT fibrillation assay; peptide 1 mg/mL in 25 mM sodium acetate buffer pH 4.0; 6 days at 37 °C with shaking; >144 h = no increase
Text: Peptide aggregation that form fibrils is an indication of physical instability. Fibril formation in solution poses a significant risk for the stability of injectable peptide drug products. Thioflavin T (ThT) fibrillation assay is a useful tool to assess the aggregation kinetics of a peptide or protein under accelerated and stressed conditions that can be used to forecast the long-term viability of a compound in solution. ThT can selectively bind amyloid fibrils and the resultant complex emits strong fluorescence signal at 482 nm when excited at 450 nm (Anal Biochem. 1989 Mar;177(2):244-9). Monitoring of the change in fluorescence signal is an established method to study the fibril forming potential of peptides and proteins. ThT (purchased from Sigma Aldrich) stock solution is prepared by dissolving the ThT powder in Milli-Q water and filtered to obtain a 0.25 mM solution. The concentration of the solution is measured at 412 nm using an extinction coefficient of 36 mM^−1cm^−1. Test peptides were dissolved at 1 mg/mL in 25 mM sodium acetate buffer pH 4.0. 100 μL aliquot of peptide solution and 5 μL aliquot of ThT solution were placed in a clear bottom black fluorescence 96-well plate. 5 replicates of each test samples were placed in zo the same row of the plate. Buffer was placed in control wells for baseline correction. All empty wells were filled with water to prevent evaporation. The plate was sealed with aluminium seal and placed in fluorescence plate reader and incubated for 6 days at 37 ° C. with intermittent orbital shaking at 500 to 750 rpm. The fluorescence intensity was measured every 30 min using excitation at 444 nm and emission at 480 nm. The fibril forming potential of the test peptides was determined by measuring the average time taken to detect an increase in baseline corrected fluorescence intensity.

| Ratio (selectivity hAMYR vs hCTR, ratio of EC50 values at the two receptors) [1] | EC50 [1] [pM] | EC50 [2] [pM] | Time taken to detect increase in fluorescence intensity [3] [h] | Compound |
| --- | --- | --- | --- | --- |
| 23 | 79 | 1820 | <5 | CC[C@H](C)[C@H](NC(=O)[C@@H]1CCCN1C(=O)CNC(=O)[C@H](Cc1ccccc1)NC(=O)[C@H](CC(N)=O)NC(=O)[C@H](CC(N)=O)NC(=O)[C@H](CO)NC(=O)[C@H](CO)NC(=O)[C@H](Cc1c[nH]cn1)NC(=O)[C@@H](NC(=O)[C@H](CC(C)C)NC(=O)[C@H](Cc1ccccc1)NC(=O)[C@H](CC(N)=O)NC(=O)[C@H](C)NC(=O)[C@H](CC(C)C)NC(=O)[C@H](CCCNC(=N)N)NC(=O)[C@H](CCC(N)=O)NC(=O)[C@@H](NC(=O)[C@H](C)NC(=O)[C@@H]1CSSC[C@H](NC(=O)[C@@H](N)CCCCNC(=O)CC[C@H](NC(=O)CCCCCCCCCCCCCCCCC(=O)O)C(=O)O)C(=O)N[C@@H](CC(N)=O)C(=O)N[C@@H]([C@@H](C)O)C(=O)N[C@@H](C)C(=O)N[C@@H]([C@@H](C)O)C(=O)N1)[C@@H](C)O)C(C)C)C(=O)N[C@@H](CC(C)C)C(=O)N1CCC[C@@H]1C(=O)N1CCC[C@H]1C(=O)N[C@H](C(=O)N[C@@H](CC(N)=O)C(=O)N[C@H](C(=O)NCC(=O)N[C@@H](CO)C(=O)N[C@@H](CC(N)=O)C(=O)N[C@H](C(=O)N[C@@H](Cc1ccc(O)cc1)C(N)=O)[C@@H](C)O)C(C)C)[C@@H](C)O [Peptide 104] (H-K([γGlu-C18 diacid])CNTATCATQRLANFLVHSSNNFGPIL[dP]PTNVGSNTY-NH2; disulfide 2-7; N-terminus assumed) |
| 10 | 196 | 2040 | 25 | CC[C@H](C)[C@H](NC(=O)[C@@H]1CCCN1C(=O)CNC(=O)[C@](C)(Cc1ccccc1)NC(=O)[C@H](CC(N)=O)NC(=O)[C@H](CC(N)=O)NC(=O)[C@H](CO)NC(=O)[C@H](CO)NC(=O)[C@H](Cc1c[nH]cn1)NC(=O)[C@@H](NC(=O)[C@H](CC(C)C)NC(=O)[C@H](Cc1ccccc1)NC(=O)[C@H](CC(N)=O)NC(=O)[C@H](C)NC(=O)[C@H](CC(C)C)NC(=O)[C@H](CCCNC(=N)N)NC(=O)[C@H](CCC(N)=O)NC(=O)[C@@H](NC(=O)[C@H](C)NC(=O)[C@@H]1CSSC[C@H](NC(=O)[C@@H](N)CCCCNC(=O)CC[C@H](NC(=O)CC[C@H](NC(=O)CCCCCCCCCCCCCCCCC(=O)O)C(=O)O)C(=O)O)C(=O)N[C@@H](CC(N)=O)C(=O)N[C@@H]([C@@H](C)O)C(=O)N[C@@H](C)C(=O)N[C@@H]([C@@H](C)O)C(=O)N1)[C@@H](C)O)C(C)C)C(=O)N[C@@H](CC(C)C)C(=O)N1CCC[C@H]1C(=O)N1CCC[C@H]1C(=O)N[C@H](C(=O)N[C@@H](CC(N)=O)C(=O)N[C@H](C(=O)NCC(=O)N[C@@H](CO)C(=O)N[C@@H](CC(N)=O)C(=O)N[C@H](C(=O)N[C@@H](Cc1ccc(O)cc1)C(N)=O)[C@@H](C)O)C(C)C)[C@@H](C)O [Peptide 13, K(γE-γE-C18diacid)[CNTATC]ATQRLANFLVHSSNN(αMePhe)GPILPPTNVGSNTY-amide] (H-K([γGlu-γGlu-C18 diacid])CNTATCATQRLANFLVHSSNN[αMeF]GPILPPTNVGSNTY-NH2; disulfide 2-7; N-terminus assumed) |
| 26 | 598 | 15800 | >144 | CC[C@H](C)[C@H](NC(=O)[C@@H]1CCCN1C(=O)CNC(=O)[C@H](Cc1ccccc1)NC(=O)[C@H](CC(N)=O)NC(=O)[C@H](CC(N)=O)NC(=O)[C@H](CO)NC(=O)[C@H](CO)NC(=O)[C@H](Cc1c[nH]cn1)NC(=O)[C@@H](NC(=O)[C@H](CC(C)C)NC(=O)[C@H](Cc1ccccc1)NC(=O)[C@H](CCN)NC(=O)[C@H](C)NC(=O)[C@H](CC(C)C)NC(=O)[C@H](CCCNC(=N)N)NC(=O)[C@H](CCC(N)=O)NC(=O)[C@@H](NC(=O)[C@H](C)NC(=O)[C@@H]1CSSC[C@H](NC(=O)[C@H](CCCCN)NC(=O)[C@@H](N)CCCCNC(=O)CC[C@H](NC(=O)CCCCCCCCCCCCCCCCC(=O)O)C(=O)O)C(=O)N[C@@H](CC(N)=O)C(=O)N[C@@H]([C@@H](C)O)C(=O)N[C@@H](C)C(=O)N[C@@H]([C@@H](C)O)C(=O)N1)[C@@H](C)O)C(C)C)C(=O)N[C@@H](CC(C)C)C(=O)N1CCC[C@H]1C(=O)N1CCC[C@H]1C(=O)N[C@H](C(=O)N[C@@H](CC(N)=O)C(=O)N[C@H](C(=O)NCC(=O)N[C@@H](CO)C(=O)N[C@@H](CC(N)=O)C(=O)N[C@H](C(=O)N[C@@H](Cc1ccc(O)cc1)C(N)=O)[C@@H](C)O)C(C)C)[C@@H](C)O [Peptide 33] (H-K([γGlu-C18 diacid])KCNTATCATQRLA[Dab]FLVHSSNNFGPILPPTNVGSNTY-NH2; disulfide 3-8; N-terminus assumed) |
| 21 | 177 | 3640 | >144 | CC[C@H](C)[C@H](NC(=O)[C@@H]1CCCN1C(=O)CNC(=O)[C@](C)(Cc1ccccc1)NC(=O)[C@H](CC(N)=O)NC(=O)[C@H](CC(N)=O)NC(=O)[C@H](CO)NC(=O)[C@H](CO)NC(=O)[C@H](Cc1c[nH]cn1)NC(=O)[C@H](CCCNC(=N)N)NC(=O)[C@H](CC(C)C)NC(=O)[C@H](Cc1ccccc1)NC(=O)[C@H](CCC(=O)O)NC(=O)[C@H](C)NC(=O)[C@H](CC(C)C)NC(=O)[C@H](CCCNC(=N)N)NC(=O)[C@H](CCC(N)=O)NC(=O)[C@@H](NC(=O)[C@H](C)NC(=O)[C@@H]1CSSC[C@H](NC(=O)[C@@H](N)CCCCNC(=O)CC[C@H](NC(=O)CC[C@H](NC(=O)CCCCCCCCCCCCCCCCC(=O)O)C(=O)O)C(=O)O)C(=O)N[C@@H](CC(N)=O)C(=O)N[C@@H]([C@@H](C)O)C(=O)N[C@@H](C)C(=O)N[C@@H]([C@@H](C)O)C(=O)N1)[C@@H](C)O)C(=O)N[C@@H](CC(C)C)C(=O)N1CCC[C@H]1C(=O)N1CCC[C@H]1C(=O)N[C@H](C(=O)N[C@@H](CC(N)=O)C(=O)N[C@H](C(=O)NCC(=O)N[C@@H](CO)C(=O)N[C@@H](CC(N)=O)C(=O)N[C@H](C(=O)N[C@@H](Cc1ccc(O)cc1)C(N)=O)[C@@H](C)O)C(C)C)[C@@H](C)O [Peptide 11, K(γE-γE-C18diacid)[CNTATC]ATQRLAEFLRHSSNN(αMePhe)GPILPPTNVGSNTY-amide] (H-K([γGlu-γGlu-C18 diacid])CNTATCATQRLAEFLRHSSNN[αMeF]GPILPPTNVGSNTY-NH2; disulfide 2-7) |
